Results published in patent publication US20250361231A1, “FUSED RING COMPOUNDS WITH SULFUR-CONTAINING SUBSTITUENTS, PREPARATION METHODS, INSECTICIDE COMPOSITIONS, AND APPLICATION” (priority 2022, published 2025).

How the values were obtained:
Assay type in all cases: in vivo
Aphis craccivora Koch = test: Activity against Aphis craccivora Koch, pea seedling roots in test solution; conditions: for mortality at 100 ppm: Aphis craccivora, 144 h, test rate 100 ppm, 6 days after placing seedlings into test solutions; for effect: application rate 4 ppm
Description: (§1) Roots of pea seedlings infested with an aphid population of mixed ages were placed directly into agueous test solutions prepared from […] stock solutions. The samples were assessed for mortality 6 days after placing seedlings into test solutions.

Nilaparvata lugens = test: Activity against Nilaparvata lugens, sprayed leaf discs, adults; conditions: for mortality at 100 ppm: Nilaparvata lugens, foliar, 144 h, test rate 100 ppm, 6 days after incubation; for effect: application rate 45 ppm
Description: Cotton leaf discs were placed on agar in 24-well microtiter plates and sprayed with agueous test solutions prepared from 10,000 ppm DMSO stock solutions. After drying the leaf discs were infested with adult Nilaparvata lugens. The samples were checked for mortality 6 days after incubation.

Leucania separate = test: Activity against Leucania separate, sprayed maize sprouts, L2 larvae; conditions: 96 h; application rate 100 ppm; 4 days after infestation; read-out: effect in at least one of the two categories (mortality or growth inhibition)
Description: (§2) This test case is used to illustrate the insecticidal activity inhibition (%) of compounds with the structure shown in formula (I) (dosage of 100 ppm).
Maize sprouts placed onto an agar layer in 24-well microtiter plates were treated with agueous test solutions prepared from 10,000 ppm DMSO stock solutions by spraying. After drying, the plates were infested with L2 larvae (6 to 10 per well). The samples were assessed for mortality and growth inhibition in comparison to untreated samples 4 days after infestation.

Plutella xylostella = test: Activity against Plutella xylostella, artificial diet in 24-well plates, L2 larvae; conditions: for percent effect (mortality or growth inhibition) at 100 ppm: Plutella xylostella, 120 h, application rate 100 ppm, 5 days after infestation, read-out: effect in at least one of the two categories (mortality or growth inhibition); for effect: application rate 4 ppm
Description: (§3) 24-well microtiter plates with artificial diet were treated with agueous test solutions prepared from 10,000 ppm DMSO stock solutions by pipetting. After drying, the plates were infested with L2 larvae (10 to 15 per well). The samples were assessed for mortality and growth inhibition in comparison to untreated samples 5 days after infestation.

Myzus persicae = test: Activity against Myzus persicae (green peach aphid), pea seedling roots in test solution; conditions: 144 h, test rate 100 ppm, 6 days after placing seedlings into test solutions
Description: as §2, §1

Laphygma exigua = test: Activity against Laphygma exigua, artificial diet in 24-well plates, L2 larvae; conditions: application rate 4 ppm
Description: as §3

Chilo suppressalis = test: Activity against Chilo suppressalis, soaked rice seedlings, L2 larvae; conditions: application rate 5 ppm, after 96 hours, read-out: effect (mortality rates)
Description: Take 5-6 rice seedlings, each 3-4 cm in height, soak them thoroughly in the prepared solution, After drying, the plates were infested with L2 larvae (10 per well). Keep them in an observation room for rearing and observation. Use 0.1% warm water as a blank control. Incubate them in an observation room at 25 to 27° C. After 96 hours, assess the samples based on mortality rates

With `CCS(=O)(=O)c1cc2nc(C3CC3)n(C)c2nc1-c1nc2cc(C(F)(F)F)cnc2n1C` [Compound I-1] the mortality at 100 ppm (Aphis craccivora Koch) was ≥ 90%, the effect (Aphis craccivora Koch) was 100% and the mortality at 100 ppm (Nilaparvata lugens) was ≥ 90%. The percent effect (mortality or growth inhibition) at 100 ppm (Leucania separate) was ≥ 90%, the percent effect (mortality or growth inhibition) at 100 ppm (Plutella xylostella) was ≥ 90% and the mortality at 100 ppm (Myzus persicae) was ≥ 90%.
`CCS(=O)(=O)c1cc2nc(C3CC3)sc2nc1-c1nc2cc(C(F)(F)F)cnc2n1C` [Compound I-73] was tested, and the effect (Laphygma exigua) was 100%, the mortality at 100 ppm (Aphis craccivora Koch) was ≥ 90% and the effect (Aphis craccivora Koch) was 100%. The mortality at 100 ppm (Nilaparvata lugens) was ≥ 90%, the effect (Nilaparvata lugens) was 95% and the percent effect (mortality or growth inhibition) at 100 ppm (Leucania separate) was ≥ 90%. The percent effect (mortality or growth inhibition) at 100 ppm (Plutella xylostella) was ≥ 90%, the effect (Plutella xylostella) was 100% and the mortality at 100 ppm (Myzus persicae) was ≥ 90%. For the same compound, the mortality at 5 ppm (Chilo suppressalis) was 100%.
Work on `CCS(=O)(=O)c1cc2nc(C(F)(F)F)sc2nc1-c1nc2cc(C(F)(F)F)cnc2n1C` [Compound I-100] yielded an effect (Aphis craccivora Koch) of 100% and an effect (Nilaparvata lugens) of 95%.
For `CCS(=O)(=O)c1cc2nc(C)n(C)c2nc1-c1nc2cc(C(F)(F)F)cnc2n1C` [Compound I-2], the mortality at 100 ppm (Aphis craccivora Koch) was ≥ 90%, the mortality at 100 ppm (Nilaparvata lugens) was ≥ 90% and the percent effect (mortality or growth inhibition) at 100 ppm (Leucania separate) was ≥ 90%. For the same compound, the percent effect (mortality or growth inhibition) at 100 ppm (Plutella xylostella) was ≥ 90% and the mortality at 100 ppm (Myzus persicae) was ≥ 90%.
In the case of `CCS(=O)(=O)c1cc2sc(C3CC3)nc2nc1-c1nc2cc(C(F)(F)F)cnc2n1C` [Compound I-109], the effect (Laphygma exigua) is reported as 100%, the mortality at 100 ppm (Aphis craccivora Koch) is reported as ≥ 90% and the effect (Aphis craccivora Koch) is reported as 100%. For the same compound, the mortality at 100 ppm (Nilaparvata lugens) was ≥ 90%, the effect (Nilaparvata lugens) was 95% and the percent effect (mortality or growth inhibition) at 100 ppm (Leucania separate) was ≥ 90%. The percent effect (mortality or growth inhibition) at 100 ppm (Plutella xylostella) was ≥ 90%, the effect (Plutella xylostella) was 100% and the mortality at 100 ppm (Myzus persicae) was ≥ 90%. It also gave a mortality at 5 ppm (Chilo suppressalis) of 100%.
